Assay [1] concerns the target T1, Vascular endothelial growth factor receptor 2 (Homo sapiens, UniProt P35968). Kind of assay: Inhibition of N-terminal 6-His tagged recombinant VEGFR2 Kinase domain (unknown origin) expressed in baculovirus expression system incubated for 30 mins in the presence of [33p]-ATP by scintillation counting analysis.
In assay [2] the target is T2, Fibroblast growth factor receptor 1 (Homo sapiens, UniProt P11362). Kind of assay: Inhibition of N-terminal 6-His tagged recombinant FGFR1 Kinase domain (unknown origin) expressed in baculovirus expression system incubated for 30 mins in the presence of [33p]-ATP by scintillation counting analysis.
T2 sequence (P11362 whole entry, the tested form may be a part): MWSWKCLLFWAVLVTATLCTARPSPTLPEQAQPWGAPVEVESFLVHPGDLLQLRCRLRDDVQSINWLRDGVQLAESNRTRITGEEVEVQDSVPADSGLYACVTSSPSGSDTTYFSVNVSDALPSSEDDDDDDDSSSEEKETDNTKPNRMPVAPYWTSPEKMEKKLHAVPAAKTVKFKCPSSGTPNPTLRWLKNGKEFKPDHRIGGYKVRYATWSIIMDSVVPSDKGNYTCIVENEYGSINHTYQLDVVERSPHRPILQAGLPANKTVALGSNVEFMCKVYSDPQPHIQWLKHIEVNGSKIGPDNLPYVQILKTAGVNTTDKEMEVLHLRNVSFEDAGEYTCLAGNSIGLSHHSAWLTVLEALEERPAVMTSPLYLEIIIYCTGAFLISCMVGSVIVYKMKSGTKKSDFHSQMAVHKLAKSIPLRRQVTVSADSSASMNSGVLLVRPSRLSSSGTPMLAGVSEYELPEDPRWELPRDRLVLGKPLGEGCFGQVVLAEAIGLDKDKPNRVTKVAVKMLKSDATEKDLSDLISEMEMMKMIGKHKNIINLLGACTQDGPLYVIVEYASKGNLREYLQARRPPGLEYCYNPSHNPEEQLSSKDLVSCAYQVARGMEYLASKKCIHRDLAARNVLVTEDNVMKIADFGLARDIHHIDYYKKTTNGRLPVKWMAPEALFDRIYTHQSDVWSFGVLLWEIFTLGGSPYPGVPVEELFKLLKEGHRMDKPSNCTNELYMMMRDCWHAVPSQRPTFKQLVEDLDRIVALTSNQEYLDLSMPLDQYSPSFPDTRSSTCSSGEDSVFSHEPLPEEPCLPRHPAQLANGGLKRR
Assay [3] has as its target T3, Platelet-derived growth factor receptor beta (Homo sapiens, UniProt P09619). Kind of assay: Inhibition of N-terminal 6-His tagged recombinant PDGFRbeta Kinase domain (unknown origin) expressed in baculovirus expression system incubated for 30 mins in the presence of [33p]-ATP by scintillation counting analysis.
Assay [4] deals with T4, Receptor-type tyrosine-protein kinase FLT3 (Homo sapiens, UniProt P36888).
T4 sequence (P36888 whole entry): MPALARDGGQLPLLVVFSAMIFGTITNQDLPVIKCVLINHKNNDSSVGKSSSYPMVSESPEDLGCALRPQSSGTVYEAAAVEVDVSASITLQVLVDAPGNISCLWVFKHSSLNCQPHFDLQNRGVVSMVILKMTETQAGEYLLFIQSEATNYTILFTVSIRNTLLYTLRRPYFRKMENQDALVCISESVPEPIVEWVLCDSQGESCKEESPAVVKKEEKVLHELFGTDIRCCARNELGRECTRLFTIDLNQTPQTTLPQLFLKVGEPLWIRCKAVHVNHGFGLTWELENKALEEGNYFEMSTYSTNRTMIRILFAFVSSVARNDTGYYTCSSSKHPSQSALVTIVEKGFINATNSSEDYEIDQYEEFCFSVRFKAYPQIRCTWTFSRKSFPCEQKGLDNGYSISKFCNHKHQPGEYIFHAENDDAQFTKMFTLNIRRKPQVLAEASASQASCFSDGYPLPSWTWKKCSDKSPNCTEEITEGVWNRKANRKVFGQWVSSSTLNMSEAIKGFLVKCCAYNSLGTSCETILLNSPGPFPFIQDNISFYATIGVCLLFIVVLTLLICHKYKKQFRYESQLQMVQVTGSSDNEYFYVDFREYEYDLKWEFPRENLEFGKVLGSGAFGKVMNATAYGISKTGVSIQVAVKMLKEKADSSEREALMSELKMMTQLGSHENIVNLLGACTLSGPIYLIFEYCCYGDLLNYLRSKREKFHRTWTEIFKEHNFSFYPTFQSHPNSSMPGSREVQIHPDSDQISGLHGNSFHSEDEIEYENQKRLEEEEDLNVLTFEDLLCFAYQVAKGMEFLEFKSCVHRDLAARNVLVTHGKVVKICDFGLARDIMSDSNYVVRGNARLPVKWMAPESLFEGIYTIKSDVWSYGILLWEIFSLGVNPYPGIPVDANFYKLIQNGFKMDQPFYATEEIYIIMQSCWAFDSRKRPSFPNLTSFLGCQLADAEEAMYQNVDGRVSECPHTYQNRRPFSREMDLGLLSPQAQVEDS
In words: Inhibition of His tagged recombinant human FLT3 (564 to 958 residues) expressed in baculovirus expression system incubated for […] in the presence of ATP by Z'-LYTE kinase assay.

The target in assay [5] is Platelet-derived growth factor receptor alpha (Homo sapiens, UniProt P16234). Kind of assay: Inhibition of PDGFRalpha (unknown origin) incubated for […] in the presence of ATP by Z'-LYTE kinase assay.
Assay [6] concerns the target T2, Fibroblast growth factor receptor 1. In words: Inhibition of FGFR1 (unknown origin) by Z'-LYTE Kinase assay.
The target in assay [7] is T5, Fibroblast growth factor receptor 2 (Homo sapiens, UniProt P21802). In words: Inhibition of FGFR2 (unknown origin) by Z'-LYTE Kinase assay.
T5 sequence (P21802 whole entry): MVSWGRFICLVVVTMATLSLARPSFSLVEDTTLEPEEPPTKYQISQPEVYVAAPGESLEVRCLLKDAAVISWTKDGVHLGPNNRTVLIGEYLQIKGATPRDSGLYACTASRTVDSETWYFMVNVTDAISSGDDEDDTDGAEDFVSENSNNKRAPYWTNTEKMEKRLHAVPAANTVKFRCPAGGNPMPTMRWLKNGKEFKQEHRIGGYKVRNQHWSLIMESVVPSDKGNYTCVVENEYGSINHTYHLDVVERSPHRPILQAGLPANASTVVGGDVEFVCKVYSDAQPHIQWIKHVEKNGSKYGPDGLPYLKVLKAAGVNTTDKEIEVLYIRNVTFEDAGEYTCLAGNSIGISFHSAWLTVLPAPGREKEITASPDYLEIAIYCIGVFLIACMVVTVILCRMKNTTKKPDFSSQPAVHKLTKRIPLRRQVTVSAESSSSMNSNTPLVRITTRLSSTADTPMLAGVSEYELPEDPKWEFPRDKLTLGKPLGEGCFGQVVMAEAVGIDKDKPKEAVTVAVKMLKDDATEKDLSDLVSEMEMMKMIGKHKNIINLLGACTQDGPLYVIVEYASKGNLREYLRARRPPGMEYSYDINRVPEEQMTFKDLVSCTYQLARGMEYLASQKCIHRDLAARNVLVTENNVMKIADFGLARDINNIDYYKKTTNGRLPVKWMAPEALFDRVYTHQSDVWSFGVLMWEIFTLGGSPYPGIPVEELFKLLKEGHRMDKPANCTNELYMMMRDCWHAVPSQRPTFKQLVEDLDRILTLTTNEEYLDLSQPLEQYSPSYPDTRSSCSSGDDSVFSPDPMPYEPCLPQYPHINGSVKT
The target of assay [8] is T6, Fibroblast growth factor receptor 3 (Homo sapiens, UniProt P22607). Kind of assay: Inhibition of FGFR3 (unknown origin) by Z'-LYTE Kinase assay.
T6 sequence (P22607 whole entry): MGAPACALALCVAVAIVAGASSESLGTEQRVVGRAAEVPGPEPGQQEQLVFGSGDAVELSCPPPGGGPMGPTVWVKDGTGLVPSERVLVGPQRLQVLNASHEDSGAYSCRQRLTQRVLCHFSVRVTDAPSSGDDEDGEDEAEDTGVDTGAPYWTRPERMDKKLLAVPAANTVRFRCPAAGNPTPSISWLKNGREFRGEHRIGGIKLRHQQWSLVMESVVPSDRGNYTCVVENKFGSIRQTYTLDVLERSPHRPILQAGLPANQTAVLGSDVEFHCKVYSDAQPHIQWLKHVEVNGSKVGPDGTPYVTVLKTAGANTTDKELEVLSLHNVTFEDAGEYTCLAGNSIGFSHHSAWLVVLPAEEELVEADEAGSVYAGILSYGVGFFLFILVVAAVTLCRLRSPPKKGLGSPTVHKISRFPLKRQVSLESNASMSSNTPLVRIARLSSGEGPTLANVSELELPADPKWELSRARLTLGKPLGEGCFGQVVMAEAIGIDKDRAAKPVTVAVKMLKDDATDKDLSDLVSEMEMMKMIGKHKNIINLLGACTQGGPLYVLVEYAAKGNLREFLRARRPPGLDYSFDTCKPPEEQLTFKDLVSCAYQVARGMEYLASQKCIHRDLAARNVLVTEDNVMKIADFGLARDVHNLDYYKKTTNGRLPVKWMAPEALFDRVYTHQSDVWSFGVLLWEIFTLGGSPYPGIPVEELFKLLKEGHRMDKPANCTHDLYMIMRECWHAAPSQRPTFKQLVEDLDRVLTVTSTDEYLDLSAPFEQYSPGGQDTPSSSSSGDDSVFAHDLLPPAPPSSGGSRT
Assay [9] addresses T7, Fibroblast growth factor receptor 4 (Homo sapiens, UniProt P22455). In words: Inhibition of FGFR4 (unknown origin) by Z'-LYTE Kinase assay.
The target of assay [10] is T8, Epidermal growth factor receptor (Homo sapiens, UniProt P00533). In words: Inhibition of EGFR (unknown origin) by Z'-LYTE Kinase assay.
Assay [11] concerns the target T2, Fibroblast growth factor receptor 1. In words: Inhibition of recombinant FGFR1 (unknown origin) in the presence of [p33]-ATP.
Assay [12] concerns the target T5, Fibroblast growth factor receptor 2. Kind of assay: Inhibition of recombinant FGFR2 (unknown origin) in the presence of [p33]-ATP.
In assay [13] the target is T6, Fibroblast growth factor receptor 3. Kind of assay: Inhibition of recombinant FGFR3 (unknown origin) in the presence of [p33]-ATP.
The target of assay [14] is T7, Fibroblast growth factor receptor 4. In words: Inhibition of recombinant FGFR4 (unknown origin) in the presence of [p33]-ATP.
Assay [15] addresses T9, Vascular endothelial growth factor receptor 1 (Homo sapiens, UniProt P17948). In words: Inhibition of recombinant VEGFR1 (unknown origin) in the presence of [p33]-ATP.
Assay [16] deals with T1, Vascular endothelial growth factor receptor 2. Kind of assay: Inhibition of recombinant VEGFR2 (unknown origin) in the presence of [p33]-ATP.
The target in assay [17] is Vascular endothelial growth factor receptor 3 (Homo sapiens, UniProt P35916). In words: Inhibition of recombinant VEGFR3 (unknown origin) in the presence of [p33]-ATP.
Assay [18] addresses T10, Fibroblast growth factor receptor substrate 2 (Homo sapiens, UniProt Q8WU20).
T10 sequence (Q8WU20 whole entry): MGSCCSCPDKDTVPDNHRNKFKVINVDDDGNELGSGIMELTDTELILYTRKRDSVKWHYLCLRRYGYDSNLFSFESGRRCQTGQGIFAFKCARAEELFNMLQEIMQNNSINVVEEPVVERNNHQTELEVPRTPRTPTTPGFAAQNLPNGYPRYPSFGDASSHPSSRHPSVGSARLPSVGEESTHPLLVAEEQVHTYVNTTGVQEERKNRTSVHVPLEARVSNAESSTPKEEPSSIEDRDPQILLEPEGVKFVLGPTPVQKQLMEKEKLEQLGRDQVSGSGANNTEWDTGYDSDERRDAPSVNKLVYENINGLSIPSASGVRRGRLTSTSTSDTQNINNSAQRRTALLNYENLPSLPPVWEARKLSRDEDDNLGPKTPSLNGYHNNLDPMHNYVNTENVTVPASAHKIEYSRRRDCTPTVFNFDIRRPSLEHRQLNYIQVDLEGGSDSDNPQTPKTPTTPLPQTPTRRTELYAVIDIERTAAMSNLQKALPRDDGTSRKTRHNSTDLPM
Kind of assay: Inhibition of FRS2 phosphorylation at Tyr196 residue in human NCI-H1581 cells incubated for 20 mins by electrochemiluminescence method. In kind it is cell-based.

The target in assay [19] is T10, Fibroblast growth factor receptor substrate 2. Kind of assay: Inhibition of FRS2 phosphorylation at Tyr196 residue in human SNU-16 cells incubated for 20 mins by electrochemiluminescence method. The assay is classed as cell-based.
For assay [20] the target is unchanged. Kind of assay: Inhibition of FRS2 phosphorylation at Tyr196 residue in human RT-4 cells incubated for 20 mins by electrochemiluminescence method. In kind it is cell-based.
Assay [21] concerns RT-4. In words: Antitumor activity against human RT-4 cells xenografted in mouse assessed as tumor growth inhibition at 20 mg/kg/day, po administered for 21 days relative to control. In kind it is functional. Particulars: RT-4, 504 h, time 21 day, read-out: TGI.
Assay [22] relates to RT-4. In words: Antitumor activity against human RT-4 cells xenografted in mouse assessed as tumor growth inhibition at 40 mg/kg/day, po administered for 21 days relative to control. The settings on record: RT-4, 504 h, time 21 day, read-out: TGI. In kind it is functional.
In assay [23] the test system is NCI-H1581. In words: Antitumor activity against human NCI-H1581 cells assessed as tumor growth inhibition at 50 mg/kg, po administered for 14 days relative to control. Particulars: NCI-H1581, 336 h, time 14 day, read-out: TGI. In kind it is functional.
The target of assay [24] is T8, Epidermal growth factor receptor. In words: Inhibition of EGFR (unknown origin) using biotin as substrate incubated for 1 hrs in the presence of ATP by HTRF assay.
In assay [25] the target is T7, Fibroblast growth factor receptor 4. Kind of assay: Inhibition of FGFR4 (unknown origin) using biotin as substrate incubated for 1 hrs in the presence of ATP by HTRF assay. For orientation: In TR-FRET formats the signal depends on donor and acceptor labels being close together.
For assay [26], the target named is T2, Fibroblast growth factor receptor 1. In words: Inhibition of recombinant FGFR1 (unknown origin) incubated for 60 mins by ELISA analysis. On the technique in general: An ELISA detects its analyte on a solid surface through an enzyme-linked reagent.
For assay [27], the target named is T5, Fibroblast growth factor receptor 2. Kind of assay: Inhibition of recombinant FGFR2 (unknown origin) incubated for 60 mins by ELISA analysis.
Assay [28] has as its target T6, Fibroblast growth factor receptor 3. In words: Inhibition of recombinant FGFR3 (unknown origin) incubated for 60 mins by ELISA analysis.
For assay [29], the target named is T9, Vascular endothelial growth factor receptor 1. Kind of assay: Inhibition of recombinant VEGFR1 (unknown origin) incubated for 60 mins by ELISA analysis.
The target in assay [30] is T1, Vascular endothelial growth factor receptor 2. Kind of assay: Inhibition of recombinant VEGFR2 (unknown origin) incubated for 60 mins by ELISA analysis.
For assay [31], the target named is T3, Platelet-derived growth factor receptor beta. Kind of assay: Inhibition of recombinant PDGFRbeta (unknown origin) incubated for 60 mins by ELISA analysis.

Molecules are shown by their SMILES.

T1 sequence (P35968 whole entry, the tested form may be a part): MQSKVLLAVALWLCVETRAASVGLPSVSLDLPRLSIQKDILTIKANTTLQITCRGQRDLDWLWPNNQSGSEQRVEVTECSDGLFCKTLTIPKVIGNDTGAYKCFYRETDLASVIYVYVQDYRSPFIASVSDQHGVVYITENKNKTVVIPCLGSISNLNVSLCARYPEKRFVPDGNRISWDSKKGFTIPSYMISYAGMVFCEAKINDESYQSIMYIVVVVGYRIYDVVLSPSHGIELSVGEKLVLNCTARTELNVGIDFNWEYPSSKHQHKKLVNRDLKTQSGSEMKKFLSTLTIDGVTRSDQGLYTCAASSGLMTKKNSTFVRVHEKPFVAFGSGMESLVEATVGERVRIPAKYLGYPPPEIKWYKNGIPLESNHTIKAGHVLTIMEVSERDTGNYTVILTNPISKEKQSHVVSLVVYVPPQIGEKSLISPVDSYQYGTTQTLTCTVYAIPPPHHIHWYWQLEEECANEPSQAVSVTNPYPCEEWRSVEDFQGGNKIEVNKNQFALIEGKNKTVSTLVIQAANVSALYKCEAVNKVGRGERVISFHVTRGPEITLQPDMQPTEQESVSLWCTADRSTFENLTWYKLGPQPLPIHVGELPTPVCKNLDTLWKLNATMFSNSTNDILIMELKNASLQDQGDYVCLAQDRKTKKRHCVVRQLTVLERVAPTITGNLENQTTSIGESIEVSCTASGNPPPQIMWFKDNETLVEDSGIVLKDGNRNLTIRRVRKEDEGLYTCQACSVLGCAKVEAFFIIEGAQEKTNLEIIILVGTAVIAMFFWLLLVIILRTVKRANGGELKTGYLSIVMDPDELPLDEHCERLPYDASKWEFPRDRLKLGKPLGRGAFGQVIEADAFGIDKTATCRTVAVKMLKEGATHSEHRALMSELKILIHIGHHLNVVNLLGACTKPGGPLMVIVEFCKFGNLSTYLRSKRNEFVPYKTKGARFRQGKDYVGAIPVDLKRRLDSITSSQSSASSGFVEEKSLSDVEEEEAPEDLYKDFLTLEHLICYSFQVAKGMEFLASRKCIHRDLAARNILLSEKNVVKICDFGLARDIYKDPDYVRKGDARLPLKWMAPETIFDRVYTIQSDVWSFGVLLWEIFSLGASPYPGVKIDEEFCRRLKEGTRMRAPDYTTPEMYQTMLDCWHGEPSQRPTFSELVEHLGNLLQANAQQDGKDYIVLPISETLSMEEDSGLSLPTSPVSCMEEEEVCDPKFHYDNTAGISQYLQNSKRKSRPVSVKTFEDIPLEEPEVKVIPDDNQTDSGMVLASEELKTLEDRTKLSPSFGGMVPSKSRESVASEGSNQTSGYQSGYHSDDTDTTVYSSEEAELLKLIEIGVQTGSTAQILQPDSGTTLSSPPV
T7 sequence (P22455 whole entry): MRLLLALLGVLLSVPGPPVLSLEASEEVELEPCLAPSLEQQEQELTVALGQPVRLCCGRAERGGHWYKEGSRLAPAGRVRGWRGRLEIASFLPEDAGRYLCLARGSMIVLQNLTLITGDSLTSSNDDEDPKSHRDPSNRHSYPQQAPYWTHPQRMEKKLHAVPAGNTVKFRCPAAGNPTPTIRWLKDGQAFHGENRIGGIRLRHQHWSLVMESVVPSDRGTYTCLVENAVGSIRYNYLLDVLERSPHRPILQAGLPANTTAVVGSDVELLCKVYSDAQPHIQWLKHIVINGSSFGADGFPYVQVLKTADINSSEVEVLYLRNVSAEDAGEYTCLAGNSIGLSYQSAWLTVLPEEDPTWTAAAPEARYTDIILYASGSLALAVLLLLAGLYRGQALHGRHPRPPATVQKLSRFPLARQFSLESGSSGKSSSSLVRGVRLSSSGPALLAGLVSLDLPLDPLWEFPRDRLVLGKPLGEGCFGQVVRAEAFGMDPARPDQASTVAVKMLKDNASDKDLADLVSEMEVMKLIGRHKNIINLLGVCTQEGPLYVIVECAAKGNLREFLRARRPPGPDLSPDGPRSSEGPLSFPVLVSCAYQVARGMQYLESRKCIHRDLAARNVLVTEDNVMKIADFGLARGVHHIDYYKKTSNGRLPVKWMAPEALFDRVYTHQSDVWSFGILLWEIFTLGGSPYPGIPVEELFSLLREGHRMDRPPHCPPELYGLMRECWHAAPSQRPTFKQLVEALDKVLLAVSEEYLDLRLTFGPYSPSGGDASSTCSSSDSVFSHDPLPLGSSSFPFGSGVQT

A word on the IC50: it is the midpoint of a concentration-inhibition curve. For the compound `O=C(O)CCc1c(/C=C2\C(=O)Nc3ccc(F)cc32)[nH]c2c1C(=O)CCC2`, the IC50 is 25 nM in assay [1], 260 nM in assay [2] and 42 nM in assay [3].

Turning to `Cc1ccc(C(=O)Nc2ccc(CN3CCN(C)CC3)c(C(F)(F)F)c2)cc1C#Cc1cnc2[nH]ncc2c1` [OLVEREMBATINIB], the figures for the IC50 in [4] and in assay [5] were 1.33 nM and 2.08 nM, respectively.

Consider `C=CC(=O)Nc1ccc(CN(C(=O)Nc2c(Cl)c(OC)cc(OC)c2Cl)c2cc(Nc3ccc(N4CCN(C)CC4)cc3)ncn2)cc1`, for which the IC50 in [6] came to 3 nM; in [7] it was 21 nM; in [8] it was 31 nM; in assay [9] it was 35 nM; in assay [10], 43 nM.

In the case of `Cn1cc(-c2ccc3c(c2)ncn3-c2cc(NS(=O)(=O)C3CC3)cc(-c3ccc(F)cc3F)c2)cn1`, the IC50 in assay [11] turned out to be 11 nM; in assay [12], 16 nM; in [13], 6 nM; in [14], 35 nM; in assay [15], 26 nM; in assay [16], 9 nM. Further, the IC50 is 5 nM in [17], 93 nM in assay [18], 59 nM in assay [19] and 89 nM in assay [20]. Also, in assay [21], the inhibition in vivo at 20 mg/kg/day was determined as 37%. Also, the inhibition in vivo at 40 mg/kg/day in [22] came out at 92%.

For the compound `COc1cc(OC)c(Cl)c(-c2ccc3c(NC(=O)c4ccc(N5CCNC(C)(C)C5)cc4)n[nH]c3n2)c1Cl` [SEGIGRATINIB], the inhibition in vivo at 50 mg/kg in assay [23] worked out at 96.4%.

Take `COc1cc2ncnc(Oc3ccc(NC(=O)Nc4cccc(C(F)(F)F)c4)c4ccccc34)c2cc1OC`: the IC50 in [24] was determined as 86.2 nM; in [25] it was 83.9 nM.

For the compound `CNC(=O)c1cccc2cc(Oc3ccnc(NC(=O)c4ccc(N5CCN(CCO)CC5)cc4)c3)ccc12`, the 50% inhibitory concentration (IC50) in assay [26] stood at 1.8 nM; in [27], 1.9 nM; in [28], 6.9 nM; in assay [29] it was 5.6 nM; in [30] it was 1.2 nM; in assay [31], 7.8 nM.

The values are drawn from ChEMBL document CHEMBL5241062, “Recent advances of dual FGFR inhibitors as a novel therapy for cancer” (Eur J Med Chem, 2021).
